Measurements: US12448358B2, “Inhibitors of protein arginine deiminase 1 and methods of preparation and use thereof” (University of Massachusetts, priority 2019, dated 2025)
pKi: −log10 of the molar value. Like-named read-outs stand apart in the source and are kept apart here.

Key:
Type in all cases: biochemical
PAD2 = molecular target: T1, PAD2 (Homo sapiens, UniProt Q9Y2J8); assay: Inactivation kinetics of PAD2 (COLDER citrulline assay); settings: for pKi: concentration of inhibitor that affords half-maximal inactivation; for Fold PAD selectivity: bracketed value under kinact/KI; for kinact/KI: marks: * nonlinear fit of kobs versus [I], ‡ linear fit, † single kobs
T1 construct: made in house
Protocol: (§1) Inactivation kinetics. […] After 15 min, reactions were quenched with liquid nitrogen and the production of citrulline was quantified using the COLDER assay. (Kearney, et al. Biochemistry 2005, 44, 10570-10582; Knipp, et al. Anal. Biochem. 2000, 286, 257-264.) The time-dependence of PAD inhibition was fit to the following equation 1, […] (1), using Grafit, version 5.0.11, where v is velocity, ν0 is initial velocity, k (or kobs is the pseudo-first-order rate constant of inactivation, and t is time. Upon reaching saturation, the concentration dependence of kobs was fit to equation 2, kobs=kinact[I]/(KI+[I]), (2), using Grafit, version 5.0.11, where kinact is the maximal rate of inactivation, KI is the concentration of inhibitor that affords half-maximal inactivation, and [I] is the concentration of inhibitor. When kobs with [I] varied linearly, kinact/KI was determined from the slope of the line. All the experiments were performed at least in duplicate.

PAD1 = molecular target: T2, PAD1 (Homo sapiens, UniProt Q9ULC6); assay: Inactivation kinetics of PAD1 (COLDER citrulline assay); settings: for pKi / kinact/KI / kinact / fold less potent than 1 (drop in potency for PAD1): PAD1; for pKi: concentration of inhibitor that affords half-maximal inactivation; for kinact/KI: marks: * nonlinear fit of kobs versus [I], ‡ linear fit, † single kobs; for Fold PAD selectivity: PAD1 over the other PADs, bracketed value under kinact/KI; for fold less potent than 1 (drop in potency for PAD1): relative to parent compound 1
T2 construct: made in house
T2 sequence (Q9ULC6 1-663): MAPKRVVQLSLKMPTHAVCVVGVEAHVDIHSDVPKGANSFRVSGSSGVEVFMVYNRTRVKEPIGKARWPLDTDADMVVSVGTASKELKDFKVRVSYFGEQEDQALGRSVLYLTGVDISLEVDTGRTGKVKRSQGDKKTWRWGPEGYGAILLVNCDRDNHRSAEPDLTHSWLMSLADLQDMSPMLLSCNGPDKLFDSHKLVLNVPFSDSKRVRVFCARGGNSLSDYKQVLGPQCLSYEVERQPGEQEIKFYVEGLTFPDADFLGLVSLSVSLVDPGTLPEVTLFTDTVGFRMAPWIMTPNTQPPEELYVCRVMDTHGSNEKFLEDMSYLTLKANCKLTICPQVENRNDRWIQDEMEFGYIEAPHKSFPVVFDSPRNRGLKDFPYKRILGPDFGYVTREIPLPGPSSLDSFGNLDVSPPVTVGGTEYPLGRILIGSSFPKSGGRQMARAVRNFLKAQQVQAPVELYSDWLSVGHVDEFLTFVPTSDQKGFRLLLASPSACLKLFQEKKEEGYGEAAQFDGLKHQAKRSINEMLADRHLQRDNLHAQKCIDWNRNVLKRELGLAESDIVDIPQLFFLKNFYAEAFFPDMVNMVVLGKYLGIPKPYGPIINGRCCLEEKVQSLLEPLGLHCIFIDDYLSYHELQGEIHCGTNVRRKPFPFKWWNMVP
Protocol: as §1

PAD3 = molecular target: T3, PAD3 (Homo sapiens, UniProt Q9ULW8); assay: Inactivation kinetics of PAD3 (COLDER citrulline assay); settings: for Fold PAD selectivity: bracketed value under kinact/KI; for kinact/KI: marks: * nonlinear fit of kobs versus [I], ‡ linear fit, † single kobs
T3 construct: made in house
T3 sequence (Q9ULW8 1-664): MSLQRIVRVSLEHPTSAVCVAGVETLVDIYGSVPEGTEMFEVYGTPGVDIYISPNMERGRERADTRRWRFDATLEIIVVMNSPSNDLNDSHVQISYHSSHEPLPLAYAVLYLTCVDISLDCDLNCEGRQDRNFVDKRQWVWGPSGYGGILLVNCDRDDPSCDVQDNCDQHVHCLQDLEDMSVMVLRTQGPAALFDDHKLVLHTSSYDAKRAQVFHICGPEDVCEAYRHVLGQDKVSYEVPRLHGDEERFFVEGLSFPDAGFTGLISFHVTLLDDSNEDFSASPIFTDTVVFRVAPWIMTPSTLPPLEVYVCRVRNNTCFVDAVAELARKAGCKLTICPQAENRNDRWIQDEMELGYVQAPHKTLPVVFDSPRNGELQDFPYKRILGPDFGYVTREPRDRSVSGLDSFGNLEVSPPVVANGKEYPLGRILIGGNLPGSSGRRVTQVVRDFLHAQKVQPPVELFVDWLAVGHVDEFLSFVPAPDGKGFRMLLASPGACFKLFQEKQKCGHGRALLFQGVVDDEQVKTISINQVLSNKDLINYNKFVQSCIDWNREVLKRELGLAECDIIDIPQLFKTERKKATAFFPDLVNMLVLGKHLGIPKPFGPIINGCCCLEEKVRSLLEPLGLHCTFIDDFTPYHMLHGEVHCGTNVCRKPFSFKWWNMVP
Protocol: as §1

PAD4 = molecular target: T4, PAD4 (Homo sapiens, UniProt Q9UM07); assay: Inactivation kinetics of PAD4 (COLDER citrulline assay); settings: for Fold PAD selectivity: bracketed value under kinact/KI; for kinact/KI: marks: * nonlinear fit of kobs versus [I], ‡ linear fit, † single kobs; for pKi: concentration of inhibitor that affords half-maximal inactivation
T4 construct: made in house
Protocol: as §1

[1] = read-out: kinact/KI (converted)

T4 sequence (Q9UM07 whole entry): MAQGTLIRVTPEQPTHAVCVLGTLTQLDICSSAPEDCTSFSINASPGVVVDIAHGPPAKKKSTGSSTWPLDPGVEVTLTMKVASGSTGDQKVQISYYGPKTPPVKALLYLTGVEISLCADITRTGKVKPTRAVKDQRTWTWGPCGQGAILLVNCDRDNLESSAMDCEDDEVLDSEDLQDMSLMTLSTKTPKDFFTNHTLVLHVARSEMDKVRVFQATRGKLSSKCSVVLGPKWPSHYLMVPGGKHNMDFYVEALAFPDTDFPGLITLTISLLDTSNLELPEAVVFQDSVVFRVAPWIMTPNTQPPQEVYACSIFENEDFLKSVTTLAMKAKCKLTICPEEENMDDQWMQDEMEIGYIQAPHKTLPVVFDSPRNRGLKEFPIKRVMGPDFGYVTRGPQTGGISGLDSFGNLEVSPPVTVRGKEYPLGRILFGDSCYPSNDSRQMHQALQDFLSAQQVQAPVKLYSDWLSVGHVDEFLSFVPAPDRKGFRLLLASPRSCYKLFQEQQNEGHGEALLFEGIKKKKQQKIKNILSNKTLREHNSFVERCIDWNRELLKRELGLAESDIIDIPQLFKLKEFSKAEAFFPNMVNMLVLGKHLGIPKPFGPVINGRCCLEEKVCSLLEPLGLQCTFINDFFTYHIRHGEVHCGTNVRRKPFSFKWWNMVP
T1 sequence (Q9Y2J8 whole entry): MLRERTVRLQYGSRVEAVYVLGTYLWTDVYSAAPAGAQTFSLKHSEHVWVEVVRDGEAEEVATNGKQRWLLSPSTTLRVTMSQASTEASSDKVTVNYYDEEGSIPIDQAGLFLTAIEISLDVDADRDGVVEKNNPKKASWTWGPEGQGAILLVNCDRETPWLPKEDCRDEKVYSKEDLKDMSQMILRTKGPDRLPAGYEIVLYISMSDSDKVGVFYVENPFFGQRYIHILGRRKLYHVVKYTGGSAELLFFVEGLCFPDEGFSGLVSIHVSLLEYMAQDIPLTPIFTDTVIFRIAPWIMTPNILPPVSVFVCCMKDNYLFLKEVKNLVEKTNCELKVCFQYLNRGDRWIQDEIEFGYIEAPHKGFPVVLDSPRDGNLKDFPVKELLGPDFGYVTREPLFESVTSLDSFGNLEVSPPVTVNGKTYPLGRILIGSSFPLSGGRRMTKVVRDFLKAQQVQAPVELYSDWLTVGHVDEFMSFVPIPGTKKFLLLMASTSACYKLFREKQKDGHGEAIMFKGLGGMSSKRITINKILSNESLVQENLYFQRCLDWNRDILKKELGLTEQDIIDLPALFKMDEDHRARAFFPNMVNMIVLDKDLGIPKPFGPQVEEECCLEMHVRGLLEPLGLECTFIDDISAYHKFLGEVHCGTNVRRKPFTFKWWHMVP

Structure (SMILES) | pKi (PAD2) | pKi (PAD1) | kinact/KI (PAD1; [1]) | Fold PAD selectivity (PAD1) | Fold PAD selectivity (PAD2) | kinact/KI (PAD2; [1]) | Fold PAD selectivity (PAD3) | kinact/KI (PAD3; [1]) | Fold PAD selectivity (PAD4) | kinact/KI (PAD4; [1]) | kinact/KI (PAD1) | kinact/KI (PAD2) | kinact/KI (PAD3) | kinact/KI (PAD4) | also measured
N=C(CCl)NCCC[C@H](NC(=O)c1cc(I)cc(I)c1O)c1nc2ccccc2[nH]1 [Compound 2] | 4.03 | – | – | – | – | – | – | – | – | – | – | – | – | – | –
COc1c(I)cc(I)cc1C(=O)NC(CCCNC(=N)CF)c1nc2ccccc2[nH]1 (stereo not shown) [Compound 3] | – | 4.35 | 97.8 M⁻¹ s⁻¹ | [8] fold | [2] fold | 27.5 M⁻¹ s⁻¹ | [3] fold | 36 M⁻¹ s⁻¹ | [1] fold | 12.5 M⁻¹ s⁻¹ | – | – | – | – | kinact (PAD1; read-out: kinact (converted)): 0.00433 s⁻¹
COc1c(I)cc(I)cc1C(=O)N[C@@H](CCCNC(=N)CCl)c1nc2ccccc2[nH]1 [Compound 4] | 3.68 | – | – | – | – | – | – | – | – | – | – | – | – | – | –
N=C(CF)NCCC[C@H](NC(=O)c1cc(I)cc(I)c1)c1nc2ccccc2[nH]1 [Compound 5] | – | 4.52 | 121 M⁻¹ s⁻¹ | [9] fold | [1] fold | 12.8 M⁻¹ s⁻¹ | [3] fold | 41.2 M⁻¹ s⁻¹ | [1] fold | 17.8 M⁻¹ s⁻¹ | – | – | – | – | kinact (PAD1; read-out: kinact (converted)): 0.00367 s⁻¹
N=C(CCl)NCCC[C@H](NC(=O)c1ccccc1O)c1nc2ccccc2[nH]1 [Compound 8] | – | – | 10 M⁻¹ s⁻¹ | [1] fold | [5] fold | 46.7 M⁻¹ s⁻¹ | [18] fold | 176 M⁻¹ s⁻¹ | [68] fold | 684 M⁻¹ s⁻¹ | – | – | – | – | pKi (PAD4): 4.60; kinact (PAD4; read-out: kinact (converted)): 0.0172 s⁻¹
CC(C)c1cc(C(=O)N[C@@H](CCCNC(=N)CF)c2nc3ccccc3[nH]2)c(O)c(C(C)C)c1 [Compound 9] | – | – | – | [1] fold | [2] fold | – | [3] fold | – | [1] fold | – | 190 ± 20^† M^−1min^−1 | 400 ± 30^† M^−1min^−1 | 580 ± 120^† M^−1min^−1 | 240 ± 20^† M^−1min^−1 | –
CC(C)c1cc(C(=O)N[C@@H](CCCNC(=N)CCl)c2nc3ccccc3[nH]2)c(O)c(C(C)C)c1 [Compound 10] | 3.88 | – | – | – | – | – | – | – | – | – | – | – | – | – | –
N=C(CF)NCCC[C@H](NC(=O)c1cc(Br)cc(Br)c1O)c1nc2ccccc2[nH]1 [Compound 11] | – | 4.26 | 54.7 M⁻¹ s⁻¹ | 25 fold | [1] fold | 2.17 M⁻¹ s⁻¹ | [3] fold | 7 M⁻¹ s⁻¹ | [2] fold | 4.17 M⁻¹ s⁻¹ | – | – | – | – | kinact (PAD1; read-out: kinact (converted)): 0.003 s⁻¹; fold less potent than 1 (drop in potency for PAD1) (PAD1): 3 fold
N=C(CCl)NCCC[C@H](NC(=O)c1cc(Br)cc(Br)c1O)c1nc2ccccc2[nH]1 [Compound 12] | 4.04 | – | – | – | – | – | – | – | – | – | – | – | – | – | –
N=C(CF)NCCC[C@H](NC(=O)c1cc(Cl)cc(Cl)c1O)c1nc2ccccc2[nH]1 [Compound 13] | – | 3.90 | 21.5 M⁻¹ s⁻¹ | 10 fold | [1] fold | 2.17 M⁻¹ s⁻¹ | [4] fold | 9.17 M⁻¹ s⁻¹ | [2] fold | 4.83 M⁻¹ s⁻¹ | – | – | – | – | kinact (PAD1; read-out: kinact (converted)): 0.00267 s⁻¹; fold less potent than 1 (drop in potency for PAD1) (PAD1): 8 fold
N=C(CCl)NCCC[C@H](NC(=O)c1cc(Cl)cc(Cl)c1O)c1nc2ccccc2[nH]1 [Compound 14] | – | – | – | [2] fold | [1] fold | – | [2] fold | – | [1] fold | – | 5300 ± 210^‡ M^−1min^−1 | 3400 ± 70^‡ M^−1min^−1 | 5500 ± 300^‡ M^−1min^−1 | 2600 ± 70^‡ M^−1min^−1 | –
N=C(CF)NCCC[C@H](NC(=O)c1cc(I)ccc1O)c1nc2ccccc2[nH]1 [Compound 15] | – | 4.33 | 25 M⁻¹ s⁻¹ | 13 fold | [1] fold | 2 M⁻¹ s⁻¹ | [4] fold | 8.33 M⁻¹ s⁻¹ | [5] fold | 10.7 M⁻¹ s⁻¹ | – | – | – | – | kinact (PAD1; read-out: kinact (converted)): 0.00117 s⁻¹; fold less potent than 1 (drop in potency for PAD1) (PAD1): 7 fold
N=C(CCl)NCCC[C@H](NC(=O)c1cc(I)ccc1O)c1nc2ccccc2[nH]1 [Compound 16] | – | – | – | [2] fold | [1] fold | – | [3] fold | – | [2] fold | – | 3900 ± 100^‡ M^−1min^−1 | 1700 ± 70^‡ M^−1min^−1 | 5000 ± 280^‡ M^−1min^−1 | 3600 ± 70^‡ M^−1min^−1 | –
N=C(CF)NCCC[C@H](NC(=O)c1cccc(I)c1O)c1nc2ccccc2[nH]1 [Compound 17] | – | – | – | 3 fold | [1] fold | – | [2] fold | – | [2] fold | – | 300 ± 30^† M^−1min^−1 | 110 ± 10^† M^−1min^−1 | 240 ± 30^† M^−1min^−1 | 180 ± 20^† M^−1min^−1 | fold less potent than 1 (drop in potency for PAD1) (PAD1): 35 fold
N=C(CCl)NCCC[C@H](NC(=O)c1cccc(I)c1O)c1nc2ccccc2[nH]1 [Compound 18] | – | – | – | [4] fold | [2] fold | – | [1] fold | – | [3] fold | – | 4100 ± 300^‡ M^−1min^−1 | 2210 ± 270^† M^−1min^−1 | 1170 ± 40^† M^−1min^−1 | 3160 ± 550^† M^−1min^−1 | –
N=C(CCl)NCCC[C@H](NC(=O)c1cc(I)c(F)c(I)c1O)c1nc2ccccc2[nH]1 [Compound 20] | 4.76 | – | – | – | – | – | – | – | – | – | – | – | – | – | –
C#Cc1c(I)cc(C(=O)N[C@@H](CCCNC(=N)CCl)c2nc3ccccc3[nH]2)c(O)c1I [Compound 22] | 4.60 | 4.45 | – | – | [4] fold | – | [1] fold | – | [3] fold | – | 72160 ± 10970* M^−1min^−1 | 31230 ± 1440* M^−1min^−1 | 8200 ± 30* M^−1min^−1 | 25000 ± 1370* M^−1min^−1 | kinact (PAD1): 0.0423 s⁻¹; kinact (PAD2): 0.79 min⁻¹; kinact (PAD3): 0.8 min⁻¹; pKi (PAD3; concentration of inhibitor that affords half-maximal inactivation): 4.01; kinact (PAD4): 0.0128 s⁻¹; pKi (PAD4): 4.51
